Experimental data: patent US9186406B2, “Compositions containing nucleosides and manganese and their uses” (The Henry M. Jackson Foundation for Advancement of Military …, priority 2007, dated 2015)

Key:
[1] = target: T1, restriction enzyme BamH1 (Bacillus amyloliquefaciens, UniProt P23940); assay type: biochemical; conditions: exposure to 17,500 Gy; 25 mM potassium phosphate buffer; 3 mM adenosine, 1 mM MnCl2
T1 sequence (P23940 1-213): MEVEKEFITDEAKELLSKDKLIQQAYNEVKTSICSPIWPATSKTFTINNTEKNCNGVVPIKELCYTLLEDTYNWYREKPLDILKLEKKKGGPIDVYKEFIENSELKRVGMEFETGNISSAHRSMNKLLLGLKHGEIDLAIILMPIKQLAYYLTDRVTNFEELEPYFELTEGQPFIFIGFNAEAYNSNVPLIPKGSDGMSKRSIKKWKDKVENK
Method: Post-irradiation functionality of restriction enzyme BamH1 after indicated treatment and incubation with 1-DNA.

[2] = system: hFOB cells; assay: apoptosis assay (Annexin V / PI flow cytometry) of hFOB cells 6 days after IR; assay type: cell-based, Human; conditions: for radioprotection of a mammalian cell line: agent alone; for Annexin V + / Annexin-V + PI / Live Cells / PI: hFOB cells 6 days after IR, adenosine 10 mM, MnCl2 0.25 mM, added 3 h before IR
Method: Apoptosis of Human Fetal Osteoblastic 1.19 cell line from ATCC (hFOB) was determined by death and apoptotic markers (Annexin V and propidium iodide PI) using a flow cytometry assay. In brief, hFOB cells were cultured in DMEM-F12 with 10% fetal bovine serum, 2.5 mM L-glutamine and 1% antibiotic to full confluency followed by treatment for experimental groups with adenosine (10 mM) or MnCl2 (0.25 mM) or adenosine and MnCl2 for 6 days period starting 3 h before IR. Apoptotic cell death was measured by flow cytometry with Annexin V and PI staining 6 days after IR. hFOB cells also were plated (1×10^3/well, 6-well plate) for clonogenic survival assay after IR. Colonies were counted 10 days later.
For the assays, adenosine+/−0.25 mM Mn(II) was added 3 hours prior to irradiation. Cells were assayed 6 days after irradiation by flow cytometry. Annexin-V conjugates allow for the identification of cell surface changes that occur early during the apoptotic process using flow cytometry. Early in the apoptotic process, phosphatidylserine becomes exposed on the cell surface. Propidium Iodide (PI) in un-fixed cells discriminates between apoptosis and necrosis on the basis of dye exclusion. While necrotic cells lose membrane integrity early on in their death throws, apoptotic cells may have compromised membranes.

[3] = system: Purified E. coli proteins; assay: protein carbonyl assay of purified E. coli proteins irradiated in vitro; assay type: biochemical; conditions: for prevention of ionizing radiation (IR)-induced protein oxidation (carbonylation) in vitro: purified E. coli proteins incubated with the agent during irradiation, Carbonyl Western blot
Method: Purified E. coli proteins were incubated in PP-, EC-, or DR-ultra-filtrated extract during irradiation, and subjected to a protein carbonyl assay.
Purified E. coli proteins were incubated with the indicated agents.

Structure (SMILES) | BamH1 functionality after irradiation [1] | radioprotection of a mammalian cell line [2] | Annexin V + ([2]; 0 Gy) [%] | Annexin-V + PI ([2]; 0 Gy) [%] | Live Cells ([2]; 0 Gy) [%] | PI ([2]; 0 Gy) [%] | Annexin V + ([2]; 8 Gy) [%] | Annexin-V + PI ([2]; 8 Gy) [%] | Live Cells ([2]; 8 Gy) [%] | PI ([2]; 8 Gy) [%] | prevention of ionizing radiation (IR)-induced protein oxidation (carbonylation) in vitro [3] | protection of proteins from oxidation during irradiation ([3]; potassium phosphate buffer (PPB/25 mM)+15 mM adenosine, compared to buffer alone)
[Cl][Mn][Cl] [Mn, MnCl2] | not | radioprotective | 0 | 0 | 86 | 14 | 21 | 2 | 70 | 7 | – | –
O=c1ccn([C@@H]2O[C@H](CO)[C@@H](O)[C@H]2O)c(=O)[nH]1 [uridine] | – | – | – | – | – | – | – | – | – | – | prevent ionizing radiation (IR)-induced protein oxidation in vitro | –
Nc1ncnc2c1ncn2[C@@H]1O[C@H](CO)[C@@H](O)[C@H]1O [Adenosine, adenosine] | not | radioprotective | 2 | 1 | 85 | 13 | 3 | 2 | 85 | 10 | prevent ionizing radiation (IR)-induced protein oxidation in vitro | highly protected from oxidation
